Where no end group is shown, it is not given here.
Target: T1, α2 β1 integrin (Homo sapiens, UniProt P05556+P17301)
T1 construct: Mg^++ -dependent adhesion of platelets, which use the α2 β1 integrin as a collagen specific receptor; endogenous in cells; host or cells: washed 51Cr-labelled platelets
Test: Mg++-dependent adhesion of 51Cr-labeled platelets to type I collagen substrates, peptide inhibition
Type: cell-based
Description: Platelet Adhesion-Platelets were washed and labeled with ^51 CrO4 as described in detail by Haverstick et al (22). Platelet adhesion to substrate composed of 0.5% BSA or 20 μg/ml of either type I collagen, laminin or fibronectin in polystryene dishes was determined as previously described in detail (7). Alternately, adhesion assays were carried out in 96 well microtiter dishes (Immulon II, Dynatech). In this case substrate coating- and adhesion assay volumes were adjusted to 100 μl and wash volumes were adjusted to 140 μl per well. Platelets were permitted to adhere for 60 min at a concentration of 1.3-- to 1.8×10^8 platelets/ml, then wash five times in adhesion assay buffer before being lysed with two […] aliquots of 2% SDS which were subsequently pooled and counted.
Peptide Inhibition--After labeling and washing, cells were resuspended at 2.6- to 3.6×10^5 /ml for platelets or 2×10^5 /ml for T47D cells. Aliquots were added to equal volumes of buffer containing appropriate concentrations of the peptides and divalent cations and preincubated for 15 min before being added to the adhesive substrates. Adhesion was quantitated as described above.

T1 sequence (P17301 30-1181): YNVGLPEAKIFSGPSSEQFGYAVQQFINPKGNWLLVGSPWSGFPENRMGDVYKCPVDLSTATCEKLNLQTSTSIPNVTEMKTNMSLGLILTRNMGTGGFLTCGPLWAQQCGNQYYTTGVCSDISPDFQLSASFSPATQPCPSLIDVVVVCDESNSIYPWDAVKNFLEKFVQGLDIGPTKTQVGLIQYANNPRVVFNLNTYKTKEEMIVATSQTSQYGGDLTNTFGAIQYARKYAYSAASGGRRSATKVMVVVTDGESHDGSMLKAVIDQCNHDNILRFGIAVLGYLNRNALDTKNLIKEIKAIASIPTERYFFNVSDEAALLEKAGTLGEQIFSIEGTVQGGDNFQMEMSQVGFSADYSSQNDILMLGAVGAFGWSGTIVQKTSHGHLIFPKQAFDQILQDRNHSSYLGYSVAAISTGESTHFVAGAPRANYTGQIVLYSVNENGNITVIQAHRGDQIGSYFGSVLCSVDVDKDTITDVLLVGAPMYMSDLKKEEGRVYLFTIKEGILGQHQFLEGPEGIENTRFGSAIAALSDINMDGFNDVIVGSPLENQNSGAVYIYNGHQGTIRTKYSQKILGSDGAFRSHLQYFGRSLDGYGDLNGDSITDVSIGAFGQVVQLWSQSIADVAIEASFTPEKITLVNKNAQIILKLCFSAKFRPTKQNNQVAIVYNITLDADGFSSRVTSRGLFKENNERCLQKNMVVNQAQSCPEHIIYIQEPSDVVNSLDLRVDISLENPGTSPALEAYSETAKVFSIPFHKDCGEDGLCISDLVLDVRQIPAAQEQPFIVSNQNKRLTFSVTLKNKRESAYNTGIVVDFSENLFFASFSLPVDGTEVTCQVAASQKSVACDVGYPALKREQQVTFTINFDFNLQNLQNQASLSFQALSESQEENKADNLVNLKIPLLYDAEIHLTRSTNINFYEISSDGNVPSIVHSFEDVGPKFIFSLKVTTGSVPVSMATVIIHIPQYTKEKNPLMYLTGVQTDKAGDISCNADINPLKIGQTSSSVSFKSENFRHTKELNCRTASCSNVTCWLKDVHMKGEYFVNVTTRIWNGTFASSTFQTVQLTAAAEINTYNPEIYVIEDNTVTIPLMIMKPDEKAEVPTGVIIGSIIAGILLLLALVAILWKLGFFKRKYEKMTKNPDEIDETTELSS
T1 sequence (P05556 21-798): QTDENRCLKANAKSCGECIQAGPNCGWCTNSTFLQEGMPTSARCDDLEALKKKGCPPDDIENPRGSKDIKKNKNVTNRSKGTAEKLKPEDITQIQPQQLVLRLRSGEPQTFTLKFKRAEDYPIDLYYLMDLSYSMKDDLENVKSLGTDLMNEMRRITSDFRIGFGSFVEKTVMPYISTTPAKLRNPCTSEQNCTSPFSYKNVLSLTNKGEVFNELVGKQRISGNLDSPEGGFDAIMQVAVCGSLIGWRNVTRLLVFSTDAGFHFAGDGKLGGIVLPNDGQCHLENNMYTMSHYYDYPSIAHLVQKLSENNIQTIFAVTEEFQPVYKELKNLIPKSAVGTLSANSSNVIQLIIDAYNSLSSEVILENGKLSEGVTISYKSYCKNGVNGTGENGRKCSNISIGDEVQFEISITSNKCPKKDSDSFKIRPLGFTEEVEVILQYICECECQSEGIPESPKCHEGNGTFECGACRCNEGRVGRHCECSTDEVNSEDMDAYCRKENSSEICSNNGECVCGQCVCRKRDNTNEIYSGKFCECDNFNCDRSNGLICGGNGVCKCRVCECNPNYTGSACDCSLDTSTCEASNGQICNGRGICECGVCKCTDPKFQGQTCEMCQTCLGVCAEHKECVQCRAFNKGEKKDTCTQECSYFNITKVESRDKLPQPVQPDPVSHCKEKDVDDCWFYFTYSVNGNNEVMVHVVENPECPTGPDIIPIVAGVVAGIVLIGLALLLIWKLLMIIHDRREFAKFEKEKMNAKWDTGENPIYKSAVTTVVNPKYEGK

IC50 (read-out: Half-maximal inhibition of Mg++-dependent platelet adhesion to collagen) [µM]	Inhibitory activity in 1 mM Mg++ as percent of the activity observed in 6 mM Mg++ (1 mM Mg++ versus 6 mM Mg++) [%]	Inhibition of Mg++-dependent platelet adhesion to collagen (4 mM peptide, 2 mM Mg++) [%]	Substance
2800	–	–	GPAGKDGEAGAQG-NH2 [peptide 430, GPAGKDGEAGAQG]
–	80	80	KDGEA-NH2 [KDGEA]
